target: T1, GCase (Homo sapiens, UniProt P04062); assay: live cell PFB assay in HELA cells for activation of GCase; assay type: cell-based
T1 construct: endogenous in cells; host or cells: HeLa cells
T1 sequence (P04062 40-536): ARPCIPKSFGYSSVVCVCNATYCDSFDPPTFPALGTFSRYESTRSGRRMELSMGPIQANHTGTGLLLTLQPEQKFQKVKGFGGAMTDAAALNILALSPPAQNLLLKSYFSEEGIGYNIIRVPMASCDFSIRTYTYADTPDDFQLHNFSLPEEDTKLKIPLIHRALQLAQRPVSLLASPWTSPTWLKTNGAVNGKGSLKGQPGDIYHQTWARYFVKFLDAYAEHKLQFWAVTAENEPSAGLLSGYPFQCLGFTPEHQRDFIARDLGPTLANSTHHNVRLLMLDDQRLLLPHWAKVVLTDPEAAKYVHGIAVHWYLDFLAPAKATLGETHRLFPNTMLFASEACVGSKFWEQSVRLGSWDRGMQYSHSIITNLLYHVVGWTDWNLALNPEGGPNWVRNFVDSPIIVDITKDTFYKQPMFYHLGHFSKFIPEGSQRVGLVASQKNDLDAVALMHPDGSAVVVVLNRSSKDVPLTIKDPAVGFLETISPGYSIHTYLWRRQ
Procedure: Exemplary compounds were evaluated for activation of GCase in a live cell PFB assay in HELA cells (essentially as described in Ysselstein et al., “LRRK2 kinase activity regulates lysosomal glucocerebrosidase in neurons derived from Parkinson's disease patients” Nature Communications (2019) 10:5570). […] EC50 ranges: A: <10 μM; B: >10-50 μM; C: >50-100 μM; D: >100 μM.

EC50 [µM] | SMILES
10 to 50 | FC(F)Cn1ncc2ncc(N3CC[C@@H]4CN(c5ccc(C(F)(F)F)nc5)C[C@@H]4C3)nc21 (racemic) [Compound 12, rac-5-[(3aR,7aS)-5-[1-(2,2-difluoroethyl)-1H-pyrazolo[3,4-b]pyrazin-6-yl]-octahydro-1H-pyrrolo[3,4-c]pyridin-2-yl]-2-(trifluoromethyl)pyridine]
10 to 50 | FC(F)Cn1ncc2ncc(N3CC[C@H]4[C@@H]3CCN4c3cccc(C(F)(F)F)n3)nc21 (racemic) [Compound 57, rac-2-[(3aR,6aR)-4-[1-(2,2-difluoroethyl)-1H-pyrazolo[3,4-b]pyrazin-6-yl]-octahydropyrrolo[3,2-b]pyrrol-1-yl]-6-(trifluoromethyl)pyridine]
10 to 50 | FC(F)Cn1ncc2ncc(N[C@@H]3CC[C@@H]4CN(c5cc(C(F)(F)F)ccn5)C[C@@H]4C3)nc21 (single isomer, unassigned) [Compound 73]
10 to 50 | FC(F)Cn1ncc2ncc(N3C[C@H]4CCN(c5ncccc5C(F)(F)F)C[C@H]4C3)nc21 (racemic) [Compound 17]
< 10 | FC(F)Cn1ncc2ncc(-n3cc4c(n3)CCN(c3ncccc3C(F)(F)F)C4)nc21 [Compound 63, 1-(2,2-difluoroethyl)-6-(5-(3-(trifluoromethyl)pyridin-2-yl)-4,5,6,7-tetrahydro-2H-pyrazolo[4,3-c]pyridin-2-yl)-1H-pyrazolo[3,4-b]pyrazine]
< 10 | FC(F)Cn1ncc2ncc(N[C@H]3CC[C@@H]4CN(c5cccc(C(F)(F)F)n5)C[C@@H]4C3)nc21 (single isomer, unassigned) [Compound 70]
10 to 50 | FC(F)Cn1ncc2ncc(N3C[C@H]4CN(c5ccc(C(F)(F)F)nc5)C[C@H]4C3)nc21 [Compound 47, rac-5-[(3aR,6aS)-5-[1-(2,2-difluoroethyl)-1H-pyrazolo[3,4-b]pyrazin-6-yl]-octahydropyrrolo[3,4-c]pyrrol-2-yl]-2-(trifluoromethyl)pyridine]
10 to 50 | FC(F)Cn1ncc2ncc(N[C@H]3CC[C@@H]4CN(c5cccnc5C(F)(F)F)C[C@@H]4C3)nc21 (single isomer, unassigned) [Compound 74]
< 10 | FC(F)Cn1ncc2ncc(N3CC[C@@H]4CN(c5cccc(C(F)(F)F)n5)C[C@@H]4C3)nc21 (racemic) [Compound 7]
10 to 50 | FC(F)Cn1ncc2ncc(N3CC[C@@H]4CN(c5cncc(C(F)(F)F)c5)C[C@@H]4C3)nc21 (racemic) [Compound 10, rac-3-[(3aR,7aS)-5-[1-(2,2-difluoroethyl)-1H-pyrazolo[3,4-b]pyrazin-6-yl]-octahydro-1H-pyrrolo[3,4-c]pyridin-2-yl]-5-(trifluoromethyl)pyridine]
< 10 | FC(F)Cn1ncc2ncc(N[C@H]3C[C@@H]4CN(c5ccnc(C(F)(F)F)n5)C[C@@H]4C3)nc21 [Compound 87, 1-(2,2-difluoroethyl)-N-((3aR,5s,6aS)-2-(2-(trifluoromethyl)pyrimidin-4-yl)octahydrocyclopenta[c]pyrrol-5-yl)-1H-pyrazolo[3,4-b]pyrazin-6-amine]
< 10 | FC(F)(F)c1ccnc(N2C[C@H]3CCN(c4cnc5cnn(C6COC6)c5n4)C[C@H]3C2)c1 (racemic) [Compound 1]
10 to 50 | FC(F)Cn1ncc2ncc(N3CC[C@H]4CN(c5cccc(C(F)(F)F)n5)C[C@H]43)nc21 (racemic) [Compound 59, rac-2-[(3aR,6aR)-1-[1-(2,2-difluoroethyl)-1H-pyrazolo[3,4-b]pyrazin-6-yl]-octahydropyrrolo[3,4-b]pyrrol-5-yl]-6-(trifluoromethyl)pyridine]
< 10 | O=C1C2CCN(c3cnc4cnn(CC(F)F)c4n3)CC2CN1c1cccc(C(F)(F)F)n1 (stereo not shown) [Compound 67, 5-(1-(2,2-difluoroethyl)-1H-pyrazolo[3,4-b]pyrazin-6-yl)-2-(6-(trifluoromethyl)pyridin-2-yl)octahydro-1H-pyrrolo[3,4-c]pyridin-1-one]
< 10 | FC(F)Cn1ncc2ncc(N3CC[C@@H]4CN(c5cc(C(F)(F)F)ccn5)C[C@@H]4C3)nc21 (racemic) [Compound 3]
< 10 | FC(F)Cn1ncc2ncc(N[C@H]3C[C@@H]4CN(c5cnc(C(F)(F)F)nc5)C[C@@H]4C3)nc21 [Compound 88, 1-(2,2-difluoroethyl)-N-((3aR,5s,6aS)-2-(2-(trifluoromethyl)pyrimidin-5-yl)octahydrocyclopenta[c]pyrrol-5-yl)-1H-pyrazolo[3,4-b]pyrazin-6-amine]
